Among the data in patent US12060347B2 (BRISTOL-MYERS SQUIBB COMPANY, priority 2016, dated 2024) are IC50 values, retold here.

SMILES strings stand for the structures.

The assay addresses T1, human PAR4 (Homo sapiens, UniProt Q96RI0).
T1 construct: expressed in transfected cells; host or cells: HEK293 PAR4 Clone 1.2A (BMS Arctic ID 383940)
T1 sequence (Q96RI0 18-385): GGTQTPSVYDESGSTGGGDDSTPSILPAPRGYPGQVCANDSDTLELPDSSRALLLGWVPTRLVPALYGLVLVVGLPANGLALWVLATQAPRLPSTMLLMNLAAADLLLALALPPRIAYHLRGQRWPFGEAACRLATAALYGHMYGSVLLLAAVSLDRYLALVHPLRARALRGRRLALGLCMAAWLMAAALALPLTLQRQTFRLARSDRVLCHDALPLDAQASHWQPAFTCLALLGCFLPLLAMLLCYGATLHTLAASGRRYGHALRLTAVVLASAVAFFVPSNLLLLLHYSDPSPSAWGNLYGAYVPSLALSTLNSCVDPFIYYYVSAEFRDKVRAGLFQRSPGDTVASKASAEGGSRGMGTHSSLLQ
The assay is described as follows: PAR4 FLIPR assay: antagonism of agonist-peptide-induced calcium mobilization in PAR4-expressing HEK293 cells. In kind it is cell-based. To be noted: H-Ala-Phe(4-F)-[…]NH2-induced intracellular calcium mobilization, 11-point curves.
Regarding `COc1cnc2c(-c3nc4cc(F)c(O[C@@H](C)[C@@H](C)OC(=O)Nc5cnc(C(=O)NCCO)nc5)cc4s3)cc(C)cc2n1` [Example 455, (2R,3S)-3-((5-fluoro-2-(2-methoxy-7-methylquinoxalin-5-yl)benzo[d]thiazol-6-yl)oxy)butan-2-yl (2-((2-hydroxyethyl)carbamoyl)pyrimidin-5-yl)carbamate], the IC50 was 0.8 nM.
Under `COc1cnc2c(-c3nc4cc(F)c(O[C@@H](C)[C@@H](C)OC(=O)Nc5cnc(C(=O)NCC(C)(C)O)nc5)cc4s3)cc(C)cc2n1` [Example 457, (2R,3S)-3-((5-fluoro-2-(2-methoxy-7-methylquinoxalin-5-yl)benzo[d]thiazol-6-yl)oxy)butan-2-yl (2-((2-hydroxy-2-methylpropyl)carbamoyl)pyrimidin-5-yl)carbamate] stands 0.4 nM.
Turning to `COc1cnc2c(-c3nc4cc(F)c(O[C@@H](C)[C@@H](C)OC(=O)Nc5cnc(C(=O)NCCC(C)(C)O)nc5)cc4s3)cc(C)cc2n1` [Example 458, (2R,3S)-3-((5-fluoro-2-(2-methoxy-7-methylquinoxalin-5-yl)benzo[d]thiazol-6-yl)oxy)butan-2-yl (2-((3-hydroxy-3-methylbutyl)carbamoyl)pyrimidin-5-yl)carbamate], the IC50 was determined as 0.5 nM.
As for `COc1cnc2c(-c3nc4cc(F)c(O[C@@H](C)[C@@H](C)OC(=O)Nc5ccnc(C(=O)NCCC(C)(C)O)c5)cc4s3)cc(C)cc2n1` [Example 459, (2R,3S)-3-((5-fluoro-2-(2-methoxy-7-methylquinoxalin-5-yl)benzo[d]thiazol-6-yl)oxy)butan-2-yl (2-((3-hydroxy-3-methylbutyl)carbamoyl)pyridin-4-yl)carbamate], the figure is 0.9 nM; as for `COc1cnc2c(-c3nc4cc(F)c(O[C@@H](C)[C@@H](C)OC(=O)Nc5ccc(C(=O)NCC(C)(C)O)nc5)cc4s3)cc(C)cc2n1` [Example 460, (2R,3S)-3-((5-fluoro-2-(2-methoxy-7-methylquinoxalin-5-yl)benzo[d]thiazol-6-yl)oxy)butan-2-yl (6-((2-hydroxy-2-methylpropyl)carbamoyl)pyridin-3-yl)carbamate], 0.9 nM; as for `COc1cnc2c(-c3nc4cc(F)c(O[C@@H](C)[C@@H](C)OC(=O)Nc5ccnc(C(=O)NC[C@H](C)O)c5)cc4s3)cc(C)cc2n1` [Example 461, (2R,3S)-3-((5-fluoro-2-(2-methoxy-7-methylquinoxalin-5-yl)benzo[d]thiazol-6-yl)oxy)butan-2-yl (2-(((S)-2-hydroxypropyl)carbamoyl)pyridin-4-yl)carbamate], 0.4 nM.
Under `COc1cnc2c(-c3nc4cc(F)c(O[C@@H](C)[C@@H](C)OC(=O)Nc5cnc(C(=O)NC[C@H](C)O)nc5)cc4s3)cc(C)cc2n1` [Example 462, (2R,3S)-3-((5-fluoro-2-(2-methoxy-7-methylquinoxalin-5-yl)benzo[d]thiazol-6-yl)oxy)butan-2-yl (2-(((S)-2-hydroxypropyl)carbamoyl)pyrimidin-5-yl)carbamate] stands 0.2 nM; under `COc1cnc2c(-c3nc4cc(F)c(O[C@@H](C)[C@@H](C)OC(=O)Nc5cnc(C(=O)NCC6(O)CCC6)nc5)cc4s3)cc(C)cc2n1` [Example 463, (2R,3S)-3-((5-fluoro-2-(2-methoxy-7-methylquinoxalin-5-yl)benzo[d]thiazol-6-yl)oxy)butan-2-yl (2-(((1-hydroxycyclobutyl)methyl)carbamoyl)pyrimidin-5-yl)carbamate], 0.7 nM; under `COc1cnc2c(-c3nc4cc(F)c(O[C@@H](C)[C@@H](C)OC(=O)Nc5ccc(C(=O)NCCC(C)(C)O)nc5)cc4s3)cc(C)cc2n1` [Example 464, (2R,3S)-3-((5-fluoro-2-(2-methoxy-7-methylquinoxalin-5-yl)benzo[d]thiazol-6-yl)oxy)butan-2-yl (6-((3-hydroxy-3-methylbutyl)carbamoyl)pyridin-3-yl)carbamate], 1.5 nM.
Under `COc1cnc2c(-c3nc4cc(F)c(O[C@@H](C)[C@@H](C)OC(=O)Nc5ccnc(C(=O)NCC(C)(C)O)c5)cc4s3)cc(C)cc2n1` [Example 465, (2R,3S)-3-((5-fluoro-2-(2-methoxy-7-methylquinoxalin-5-yl)benzo[d]thiazol-6-yl)oxy)butan-2-yl (2-((2-hydroxy-2-methylpropyl)carbamoyl)pyridin-4-yl)carbamate] stands 1.4 nM.
On to `CNC(=O)c1cc(NC(=O)O[C@H](C)[C@H](C)Oc2cc3sc(-c4cc(C)cc5nc(OC)cnc45)nc3cc2F)ccn1` [Example 466, (2R,3S)-3-((5-fluoro-2-(2-methoxy-7-methylquinoxalin-5-yl)benzo[d]thiazol-6-yl)oxy)butan-2-yl (2-(methylcarbamoyl)pyridin-4-yl)carbamate], for which the IC50 turned out to be 0.7 nM.
As for `COc1cnc2c(-c3nc4cc(F)c(O[C@@H](C)[C@@H](C)OC(=O)Nc5ccnc(C(=O)N(C)C)c5)cc4s3)cc(C)cc2n1` [Example 467, (2R,3S)-3-((5-fluoro-2-(2-methoxy-7-methylquinoxalin-5-yl)benzo[d]thiazol-6-yl)oxy)butan-2-yl (2-(dimethylcarbamoyl)pyridin-4-yl)carbamate], the figure is 1.9 nM; as for `COc1cnc2c(-c3nc4cc(F)c(O[C@@H](C)[C@@H](C)OC(=O)Nc5cnc(C(=O)N(C)C)nc5)cc4s3)cc(C)cc2n1` [Example 468, (2R,3S)-3-((5-fluoro-2-(2-methoxy-7-methylquinoxalin-5-yl)benzo[d]thiazol-6-yl)oxy)butan-2-yl (2-(dimethylcarbamoyl)pyrimidin-5-yl)carbamate], 0.8 nM; as for `COc1cnc2c(-c3nc4cc(F)c(OC[C@@H](C)OC(=O)Nc5ccc(C(=O)NCC6(CO)COC6)nc5)cc4s3)cc(C)cc2n1` [Example 470, (R)-1-((5-fluoro-2-(2-methoxy-7-methylquinoxalin-5-yl)benzo[d]thiazol-6-yl)oxy)propan-2-yl (6-(((3-(hydroxymethyl)oxetan-3-yl)methyl)carbamoyl)pyridin-3-yl)carbamate], 2.2 nM.
As for `COc1cnc2c(-c3nc4cc(F)c(OC[C@@H](C)OC(=O)Nc5ccc(C(=O)N(C)CCO)nc5)cc4s3)cc(C)cc2n1` [Example 471, (R)-1-((5-fluoro-2-(2-methoxy-7-methylquinoxalin-5-yl)benzo[d]thiazol-6-yl)oxy)propan-2-yl (6-((2-hydroxyethyl)(methyl)carbamoyl)pyridin-3-yl)carbamate], the figure is 5.2 nM.
As for `COc1cnc2c(-c3nc4cc(F)c(OC[C@@H](C)OC(=O)Nc5ccc(C(=O)NCC(C)(C)CO)nc5)cc4s3)cc(C)cc2n1` [Example 472, (R)-1-((5-fluoro-2-(2-methoxy-7-methylquinoxalin-5-yl)benzo[d]thiazol-6-yl)oxy)propan-2-yl (6-((3-hydroxy-2,2-dimethylpropyl)carbamoyl)pyridin-3-yl)carbamate], the figure is 4.6 nM.
`COc1cnc2c(-c3nc4cc(F)c(OC[C@@H](C)OC(=O)Nc5ccc(C(=O)NCC6(CO)CCC6)nc5)cc4s3)cc(C)cc2n1` [Example 473, (R)-1-((5-fluoro-2-(2-methoxy-7-methylquinoxalin-5-yl)benzo[d]thiazol-6-yl)oxy)propan-2-yl (6-(((1-(hydroxymethyl)cyclobutyl)methyl)carbamoyl)pyridin-3-yl)carbamate]: the IC50 worked out at 3.4 nM.
Under `COc1cnc2c(-c3nc4cc(F)c(OC[C@@H](C)OC(=O)Nc5ccc(C(=O)N(C)CC(C)(C)O)nc5)cc4s3)cc(C)cc2n1` [Example 474, (R)-1-((5-fluoro-2-(2-methoxy-7-methylquinoxalin-5-yl)benzo[d]thiazol-6-yl)oxy)propan-2-yl (6-((2-hydroxy-2-methylpropyl)(methyl)carbamoyl)pyridin-3-yl)carbamate] stands 11 nM; under `COc1cnc2c(-c3nc4cc(F)c(OC[C@@H](C)OC(=O)Nc5ccc(C(=O)N6CC[C@@H](O)C6)nc5)cc4s3)cc(C)cc2n1` [Example 475], 4.8 nM.
Under `COc1cnc2c(-c3nc4cc(F)c(OC[C@@H](C)OC(=O)Nc5ccc(C(=O)N6CC[C@@H](CO)C6)nc5)cc4s3)cc(C)cc2n1` [Example 476, (R)-1-((5-fluoro-2-(2-methoxy-7-methylquinoxalin-5-yl)benzo[d]thiazol-6-yl)oxy)propan-2-yl (6-((R)-3-(hydroxymethyl)pyrrolidine-1-carbonyl)pyridin-3-yl)carbamate] stands 10 nM.
As for `COc1cnc2c(-c3nc4cc(F)c(OC[C@@H](C)OC(=O)Nc5ccc(C(=O)N6CCO[C@H](CO)C6)nc5)cc4s3)cc(C)cc2n1` [Example 477, (R)-1-((5-fluoro-2-(2-methoxy-7-methylquinoxalin-5-yl)benzo[d]thiazol-6-yl)oxy)propan-2-yl (6-((S)-2-(hydroxymethyl)morpholine-4-carbonyl)pyridin-3-yl)carbamate], the figure is 3 nM.
On to `COc1cnc2c(-c3nc4cc(F)c(OC[C@@H](C)OC(=O)Nc5ccc(C(=O)N6CC[C@H](O)C6)nc5)cc4s3)cc(C)cc2n1` [Example 478, (R)-1-((5-fluoro-2-(2-methoxy-7-methylquinoxalin-5-yl)benzo[d]thiazol-6-yl)oxy)propan-2-yl (6-((S)-3-hydroxypyrrolidine-1-carbonyl)pyridin-3-yl)carbamate], for which the IC50 turned out to be 9.1 nM.
Under `COc1cnc2c(-c3nc4cc(F)c(OC[C@@H](C)OC(=O)Nc5ccc(C(=O)N6CC[C@H](CO)C6)nc5)cc4s3)cc(C)cc2n1` [Example 479, (R)-1-((5-fluoro-2-(2-methoxy-7-methylquinoxalin-5-yl)benzo[d]thiazol-6-yl)oxy)propan-2-yl (6-((S)-3-(hydroxymethyl)pyrrolidine-1-carbonyl)pyridin-3-yl)carbamate] stands 1.4 nM.
